Drawing on ChEMBL document CHEMBL1133899, “Amino acid derived sulfonamide hydroxamates as inhibitors of procollagen C-proteinase: solid-phase synthesis of ornithine analogues” (Bioorg Med Chem Lett, 2001), this text covers IC50 for 50 molecules.

In the first assay the target is T1, Bone morphogenetic protein 1 (Homo sapiens, UniProt P13497).
T1 sequence (P13497 whole entry): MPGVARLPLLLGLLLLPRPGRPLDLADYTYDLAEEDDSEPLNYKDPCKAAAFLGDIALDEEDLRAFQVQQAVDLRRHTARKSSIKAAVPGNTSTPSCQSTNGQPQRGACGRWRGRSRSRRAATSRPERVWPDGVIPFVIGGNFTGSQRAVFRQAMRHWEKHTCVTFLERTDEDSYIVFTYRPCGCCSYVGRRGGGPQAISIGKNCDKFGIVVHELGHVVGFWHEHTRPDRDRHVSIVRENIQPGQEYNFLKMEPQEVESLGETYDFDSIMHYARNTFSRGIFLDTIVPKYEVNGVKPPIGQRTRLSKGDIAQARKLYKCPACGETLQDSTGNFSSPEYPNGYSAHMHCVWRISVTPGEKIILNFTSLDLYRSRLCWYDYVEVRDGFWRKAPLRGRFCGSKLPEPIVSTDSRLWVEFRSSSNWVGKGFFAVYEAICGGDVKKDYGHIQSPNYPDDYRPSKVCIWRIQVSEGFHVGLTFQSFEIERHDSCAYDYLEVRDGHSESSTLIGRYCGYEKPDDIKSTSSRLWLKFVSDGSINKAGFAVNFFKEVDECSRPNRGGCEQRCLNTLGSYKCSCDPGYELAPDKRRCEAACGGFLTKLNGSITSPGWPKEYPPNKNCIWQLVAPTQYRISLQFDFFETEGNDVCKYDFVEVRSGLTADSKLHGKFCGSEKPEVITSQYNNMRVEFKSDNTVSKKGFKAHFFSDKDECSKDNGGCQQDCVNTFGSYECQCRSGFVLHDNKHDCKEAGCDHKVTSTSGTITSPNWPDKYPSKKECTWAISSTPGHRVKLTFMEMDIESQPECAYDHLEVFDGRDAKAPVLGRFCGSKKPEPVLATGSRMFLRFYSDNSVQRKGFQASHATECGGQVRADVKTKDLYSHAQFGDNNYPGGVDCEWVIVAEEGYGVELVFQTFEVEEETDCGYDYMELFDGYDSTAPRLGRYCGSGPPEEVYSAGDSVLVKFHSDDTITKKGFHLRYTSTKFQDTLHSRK
The assay can be described thus: The compound was evaluated for its inhibitory effect against Procollagen C-terminal proteinase.
`COc1ccc(S(=O)(=O)N[C@H](CCCNC(=O)NC2CCCCC2)C(=O)NO)cc1` gave a half-maximal inhibitory concentration (IC50) of 0.23 µM. Same read-out and setting: under `COc1ccc(S(=O)(=O)N[C@H](CCCNC(=O)N[C@H](C)c2ccccc2)C(=O)NO)cc1` stands 0.11 µM.

A further assay has as its target T1, Bone morphogenetic protein 1. The assay can be described thus: Inhibitory activity against procollagen C-Proteinase (PCP).
Turning to `COc1ccc(S(=O)(=O)N[C@H](CCCNC(=O)CCc2ccccc2)C(=O)NO)cc1`, half-maximal inhibition (IC50) required 0.97 µM. Same read-out and setting: under `COC(=O)[C@@H](Cc1ccccc1)NC(=O)NCCC[C@@H](NS(=O)(=O)c1ccc(OC)cc1)C(=O)NO` stands 0.14 µM. Still for that read-out and setting: under `COc1ccc(S(=O)(=O)N[C@H](CCCNC(=O)Nc2cccc(F)c2)C(=O)NO)cc1` stands 0.16 µM; under `COc1ccc(S(=O)(=O)N(Cc2ccc3c(c2)OCO3)[C@H](CCCNC(=O)OCc2ccccc2)C(=O)NO)cc1`, 0.009 µM; under `COc1ccc(S(=O)(=O)N[C@@H](CCCNC(=O)Nc2ccccc2Cl)C(=O)NO)cc1`, 7.8 µM.

For the molecule `COc1cc(C)c(S(=O)(=O)N[C@H](CCCNC(=O)N[C@H](C)c2ccccc2)C(=O)NO)c(C)c1`, the IC50 stood at 23 µM. `COc1ccc(S(=O)(=O)N[C@H](CCCNC(=O)C2CC2)C(=O)NO)cc1` yielded an IC50 of 0.77 µM. `COc1ccc(S(=O)(=O)N(C)[C@H](CCCNC(=O)NC(C)c2ccccc2)C(=O)NO)cc1` (stereo partly specified): the IC50 was 2.3 µM.

In the case of `COc1ccc(S(=O)(=O)N[C@H](CCCNC(=O)C2CCCCC2)C(=O)NO)cc1`, the concentration for half-maximal inhibition (IC50) amounted to 1.6 µM. For `COc1ccc(S(=O)(=O)N(Cc2ccc3c(c2)OCO3)[C@H](CCCNC(=O)NCc2ccccc2)C(=O)NO)cc1`, the IC50 was 0.058 µM. With `COc1ccc(S(=O)(=O)N[C@H](CCCNC(=O)Nc2ccccc2Cl)C(=O)NO)cc1`, it took 0.092 µM to reach half-maximal inhibition (IC50).

On to `C[C@@H](NC(=O)NCCC[C@@H](NS(=O)(=O)c1ccc(Cl)cc1)C(=O)NO)c1ccccc1`, for which the IC50 was found to be 0.91 µM. The same measure, in the same setting: under `COc1ccc(S(=O)(=O)N[C@@H](CCCNC(=O)NCCc2cccs2)C(=O)NO)cc1` stands 5.5 µM; under `COc1ccc(S(=O)(=O)N[C@H](CCC/N=C(\S)NC2CCCCC2)C(=O)NO)cc1`, 1.7 µM; under `C[C@@H](NC(=O)NCCC[C@@H](NS(=O)(=O)c1ccc(Cl)s1)C(=O)NO)c1ccccc1`, 9.6 µM. Same read-out and setting: under `COc1ccc(S(=O)(=O)N(Cc2ccc3c(c2)OCO3)[C@H](CCCNC(=O)OCc2ccc([N+](=O)[O-])cc2)C(=O)NO)cc1` stands 0.045 µM; under `COc1ccc(S(=O)(=O)N(Cc2ccc3c(c2)OCO3)[C@H](CCCNC(=O)OCc2cccc([N+](=O)[O-])c2)C(=O)NO)cc1`, 0.038 µM.

In turn, `COc1ccc(S(=O)(=O)N[C@H](CCCNC(=O)NCCc2cccs2)C(=O)NO)cc1` returned a concentration for half-maximal inhibition (IC50) of 0.078 µM. Compared with the last molecule, the IC50 is about 2.1-fold higher. Same read-out and setting: under `COc1ccc(S(=O)(=O)N[C@@H](CCCNC(=O)Nc2cccc(F)c2)C(=O)NO)cc1` stands 4 µM. Same read-out and setting: under `COc1ccc(S(=O)(=O)N[C@H](CCCNC(=O)Nc2ccccc2)C(=O)NO)cc1` stands 0.055 µM; under `C[C@@H](NC(=O)NCCC[C@@H](NS(=O)(=O)c1ccc(F)cc1Cl)C(=O)NO)c1ccccc1`, 61 µM; under `COc1ccc(S(=O)(=O)N[C@H](CCCNC(=O)N[C@@H]2C[C@H]2c2ccccc2)C(=O)NO)cc1`, 0.17 µM.

On to `COc1ccc(S(=O)(=O)N[C@H](CCCNC(=O)N[C@H](C)c2cccc3ccccc23)C(=O)NO)cc1`, for which inhibition was half-maximal at 0.16 µM (IC50). The same measure, in the same setting: under `COC(=O)[C@@H](Cc1ccccc1)NC(=O)NCCC[C@H](NS(=O)(=O)c1ccc(OC)cc1)C(=O)NO` stands 5.9 µM. The same measure, in the same setting: under `COc1ccc(S(=O)(=O)N(Cc2ccc3c(c2)OCO3)[C@H](CCCNC(=O)NCc2cccc3ccccc23)C(=O)NO)cc1` stands 0.12 µM; under `COc1ccc(S(=O)(=O)N[C@@H](CCCNC(=O)Nc2ccccc2)C(=O)NO)cc1`, 6.9 µM; under `COc1ccc(S(=O)(=O)N(C)[C@H](CCCNC(=O)Nc2ccccc2Cl)C(=O)NO)cc1`, 7.2 µM. Still for that read-out and setting: under `COc1ccc(S(=O)(=O)N(Cc2ccc3c(c2)OCO3)[C@H](CCCNC(=O)OCC(C)C)C(=O)NO)cc1` stands 0.045 µM. `CCOC(=O)NCCC[C@H](C(=O)NO)N(Cc1ccc2c(c1)OCO2)S(=O)(=O)c1ccc(OC)cc1` yielded an IC50 of 0.22 µM. This IC50 lies about 4.9-fold higher than the previous one.

Take `COc1ccc(S(=O)(=O)N(Cc2ccc3c(c2)OCO3)[C@H](CCCNC(=O)c2ccccc2)C(=O)NO)cc1`: the IC50 is 0.098 µM. In turn, `COc1ccc(S(=O)(=O)N(Cc2cccnc2)[C@@H](C(=O)NO)C(C)C)cc1` [CGS-27023A] gave a concentration for half-maximal inhibition (IC50) of 3 µM. Same read-out and setting: under `COc1ccc(S(=O)(=O)N[C@@H](CCCNC(=O)NC2CC2c2ccccc2)C(=O)NO)cc1` (stereo partly specified) stands 0.29 µM; under `COc1ccc(S(=O)(=O)N(Cc2ccc3c(c2)OCO3)[C@H](CCCNC(=O)NCc2cccc(C)c2)C(=O)NO)cc1`, 0.05 µM; under `C[C@@H](NC(=O)NCCC[C@@H](NS(=O)(=O)c1ccccc1Cl)C(=O)NO)c1ccccc1`, 2.3 µM. The same measure, in the same setting: under `COc1ccc(S(=O)(=O)N[C@H](CCCNC(=O)OC(C)(C)C)C(=O)NO)cc1` stands 4.5 µM. Still for that read-out and setting: under `COc1ccc(S(=O)(=O)N[C@@H](CCCNC(=O)NC2CCCCC2)C(=O)NO)cc1` stands 3.6 µM; under `C[C@@H](NC(=O)NCCC[C@@H](NS(=O)(=O)c1ccc(S(=O)(=O)c2cccs2)cc1)C(=O)NO)c1ccccc1`, 5 µM. Molecule `COc1ccc(S(=O)(=O)N[C@H](CCCNC(=O)N[C@H](C)c2ccccc2)C(=O)NO)cc1` registered an IC50 of 0.11 µM.

The molecule `COc1ccc(S(=O)(=O)N(C)[C@H](CCCNC(=O)Nc2ccccc2)C(=O)NO)cc1` showed a concentration for half-maximal inhibition (IC50) of 1.6 µM. The same measure, in the same setting: under `COc1ccc(S(=O)(=O)N(Cc2ccc3c(c2)OCO3)[C@H](CCCNC(=O)OCc2ccccc2Cl)C(=O)NO)cc1` stands 0.0039 µM; under `COc1ccc(S(=O)(=O)N[C@@H](CCCNC(=O)N[C@H](C)c2cccc3ccccc23)C(=O)NO)cc1`, 1.6 µM; under `COc1ccc(S(=O)(=O)N[C@H](CCCNC(=S)NCc2ccccc2)C(=O)NO)cc1`, 0.99 µM. The same measure, in the same setting: under `COc1ccc(S(=O)(=O)N(Cc2ccc3c(c2)OCO3)[C@H](CCCNC(=O)NCCc2ccccc2)C(=O)NO)cc1` stands 0.05 µM; under `COc1ccc(S(=O)(=O)N(Cc2ccc3c(c2)OCO3)[C@H](CCCNC(=O)OCc2ccccc2Br)C(=O)NO)cc1`, 0.024 µM.

As for `COc1ccc(S(=O)(=O)N[C@H](CCCNS(=O)(=O)c2ccccc2)C(=O)NO)cc1`, half-maximal inhibition (IC50) was put at 3.4 µM.

Consider `CCCNC(=O)NCCC[C@H](C(=O)NO)N(Cc1ccc2c(c1)OCO2)S(=O)(=O)c1ccc(OC)cc1`, for which the 50% inhibitory concentration (IC50) stood at 0.097 µM. This IC50 is about 35-fold lower than that of the molecule before.

`COc1ccc(S(=O)(=O)N[C@@H](CCCNC(=O)N[C@H](C)c2ccccc2)C(=O)NO)cc1` came in with a half-maximal inhibitory concentration (IC50) of 2.1 µM. This IC50 lies about 22-fold higher than the previous one. Same read-out and setting: under `COc1ccc(S(=O)(=O)N[C@H](CCCNC(=O)C(C)C)C(=O)NO)cc1` stands 1.4 µM; under `COc1ccc(S(=O)(=O)N[C@H](CCCNC(=O)Nc2ccccc2C)C(=O)NO)cc1`, 0.26 µM.
